Source: US10202371B2, “Oxazolidin-2-one-pyrimidine derivatives and the use thereof as phosphatidylinositol-3-kinase inhibitors” (Novartis AG, priority 2012, dated 2019)

Assays:
[1] = target: human PI3Kβ (Homo sapiens (Human), UniProt P42338); assay: Biochemical assay PI3Kbeta (KinaseGlo luminescence); conditions: 1 μM ATP, read-out: PI3Kb/IC50
Description: Cancer Ther. accepted). […] (L-alpha-phosphatidylinositol (PI), Liver, Bovine) were obtained from Avanti Polar Lipid (Cat. […] (Avanti, Cat. No. 840046X) or L-α-phosphatidylinositol (PI) was obtained from Avanti Polar Lipid (Cat. […] Luminescence is a well established readout to determine ATP concentrations and can thus be used to follow the activity of many kinases regardless of their substrate. The Kinase Glo Luminescent Kinase Assay (Promega, Madison/WI, USA) is a homogeneous HTS method of measuring kinase activity by quantifying the amount of ATP remaining in solution following a kinase reaction. 50 nL of compound dilutions were dispensed onto black 384-well low volume Non Binding Styrene (NBS) plates (Costar Cat. No. […] L-α-phosphatidylinositol (PI), provided as 10 mg/ml solution in methanol, was transferred into a glass tube and dried under nitrogen beam. […] NVP-BGT226 was used as a reference compound and included in all assay plates in the form of 16 dilution points in duplicate. […] All fits were performed with the program XLfit4 (ID Business Solutions, Guildford, UK).

[2] = target: human PI3Kδ (Homo sapiens (Human), UniProt O00329); assay: Biochemical assay PI3Kdelta (Adapta TR-FRET); conditions: read-out: PI3Kd/IC50
human PI3Kδ, sequence (O00329 2-1044): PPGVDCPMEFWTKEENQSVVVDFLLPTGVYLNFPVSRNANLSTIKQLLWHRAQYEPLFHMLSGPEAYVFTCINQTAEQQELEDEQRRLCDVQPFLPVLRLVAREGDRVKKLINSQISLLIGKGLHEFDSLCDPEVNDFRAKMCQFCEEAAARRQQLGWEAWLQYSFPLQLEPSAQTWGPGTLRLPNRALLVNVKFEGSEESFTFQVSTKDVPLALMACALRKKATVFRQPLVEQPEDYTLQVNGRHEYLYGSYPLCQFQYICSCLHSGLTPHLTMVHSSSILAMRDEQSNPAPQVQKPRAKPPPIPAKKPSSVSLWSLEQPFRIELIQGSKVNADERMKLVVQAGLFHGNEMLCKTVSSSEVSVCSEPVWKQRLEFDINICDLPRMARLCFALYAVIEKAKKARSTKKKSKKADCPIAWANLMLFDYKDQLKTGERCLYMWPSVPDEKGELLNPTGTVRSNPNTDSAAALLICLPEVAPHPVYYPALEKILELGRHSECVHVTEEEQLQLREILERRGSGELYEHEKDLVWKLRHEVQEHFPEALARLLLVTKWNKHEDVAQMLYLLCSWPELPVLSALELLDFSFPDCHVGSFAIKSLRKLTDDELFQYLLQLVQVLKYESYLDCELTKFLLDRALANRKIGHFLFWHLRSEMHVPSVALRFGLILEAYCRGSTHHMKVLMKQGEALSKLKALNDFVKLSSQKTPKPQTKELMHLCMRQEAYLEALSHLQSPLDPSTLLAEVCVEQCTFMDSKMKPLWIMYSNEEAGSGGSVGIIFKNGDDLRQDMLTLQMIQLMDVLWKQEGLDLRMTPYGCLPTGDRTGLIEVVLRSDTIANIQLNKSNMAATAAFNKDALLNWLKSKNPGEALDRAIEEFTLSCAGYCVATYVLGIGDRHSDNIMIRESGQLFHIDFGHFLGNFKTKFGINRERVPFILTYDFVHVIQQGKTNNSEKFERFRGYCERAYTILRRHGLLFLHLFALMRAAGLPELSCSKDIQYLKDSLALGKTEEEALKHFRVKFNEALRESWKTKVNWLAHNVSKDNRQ
Description: Catalytically active human PI3Kα, PI3Kβ, PI3Kδ, and mTOR were cloned, expressed and purtified as described ([…], Stauffer F, Brueggen J, Furet […], de Pover A, Schoemaker K, Fabbro D, Gabriel D, Simonen M, Murphy […], Garcia-Echeverria C (2008), Mol Cancer Ther. 7:1851-63 and […], Huh […], Schoemaker K, De Pover […], Garcia-Echeverria C, Voliva CF (2011), Mol. Cancer Ther. accepted). The TR-FRET AdaptaTM Universal Kinase Assay Kit was purchased from Invitrogen Corporation (Carlsbad/CA, USA) (Cat. No. PV5099). The kit contains the following reagents: Adapta Eu-anti-ADP Antibody (Europium labeled anti-ADP antibody in HEPES buffered saline, Cat. No. PV5097), Alexa Fluor® 647-labeled ADP tracer (Alexa Fluor® 647-labeled ADP tracer in HEPES buffered saline, Cat. No. PV5098), proprietary TR-FRET dilution buffer pH 7.5 (Cat. No. PV3574). PIK3CD substrate Phosphatidylinositol was obtained from Invitrogen (vesicules consisting of 2 mM PI in 50 mM HEPES pH7.5; Cat. No. PV5371). […] TR-FRET assays for protein kinases use a long-lifetime lanthanide Terbium or Europium chelates as the donor species which overcome interference from compound autofluorescence or light scatter from precipitated compounds, by introducing a delay after excitation by a flashlamp excitation source. Results are often expressed as a ratio of the intensities of the acceptor and donor fluorophores. The ratiometric nature of such a value corrects for differences in assay volumes between wells, as well as corrects for quenching effects due to colored compounds. The AdaptaTM assay can be divided into two phases: a kinase reaction phase and an ADP detection phase. In the kinase reaction phase, all kinase reaction components are added to the well and the reaction is allowed to incubate for a set period of time specific for each kinase. After the reaction, a detection solution of Eu-labeled anti-ADP antibody, Alexa Fluor® 647-labeled ADP tracer, and EDTA (to stop the kinase reaction) are added to the assay well. ADP formed by the kinase reaction will displace the Alexa Fluor® 647-labeled ADP tracer from the antibody, resulting in a decrease in TR-FRET signal. In the presence of an inhibitor, the amount of ADP formed by the kinase reaction is reduced, and the resulting intact antibody-tracer interaction maintains a high TR-FRET signal. In the AdaptaTM assay, the donor (Europium-anti-ADP antibody) is excited at 340 nm and will transfer its energy to the acceptor (Alexa Fluor® 647-labeled ADP tracer). The emission from the Alexa Fluor® 647 can be monitored with a filter centered at 665 nm because it is located between the emission peaks of the donor, which is measured at 615/620 nm. […] Reactions were stopped with 5 μL of a mixture of EDTA containing the Eu-labeled anti-ADP antibody and the Alexa Fluor® 647-labeled ADP tracer in TR-FRET dilution buffer (proprietary to IVG). […] Data are analyzed using Excel fit software or Graphpad Prism. EC50 values were derived by fitting a sigmoidal dose-response curve to a plot of assay readout over inhibitor concentration. All fits were performed with the program XLfit4 (ID Business Solutions, Guildford, UK). […] All fits were performed with the program XLfit4 (ID Business Solutions, Guildford, UK).

human PI3Kβ, sequence (P42338 2-1070): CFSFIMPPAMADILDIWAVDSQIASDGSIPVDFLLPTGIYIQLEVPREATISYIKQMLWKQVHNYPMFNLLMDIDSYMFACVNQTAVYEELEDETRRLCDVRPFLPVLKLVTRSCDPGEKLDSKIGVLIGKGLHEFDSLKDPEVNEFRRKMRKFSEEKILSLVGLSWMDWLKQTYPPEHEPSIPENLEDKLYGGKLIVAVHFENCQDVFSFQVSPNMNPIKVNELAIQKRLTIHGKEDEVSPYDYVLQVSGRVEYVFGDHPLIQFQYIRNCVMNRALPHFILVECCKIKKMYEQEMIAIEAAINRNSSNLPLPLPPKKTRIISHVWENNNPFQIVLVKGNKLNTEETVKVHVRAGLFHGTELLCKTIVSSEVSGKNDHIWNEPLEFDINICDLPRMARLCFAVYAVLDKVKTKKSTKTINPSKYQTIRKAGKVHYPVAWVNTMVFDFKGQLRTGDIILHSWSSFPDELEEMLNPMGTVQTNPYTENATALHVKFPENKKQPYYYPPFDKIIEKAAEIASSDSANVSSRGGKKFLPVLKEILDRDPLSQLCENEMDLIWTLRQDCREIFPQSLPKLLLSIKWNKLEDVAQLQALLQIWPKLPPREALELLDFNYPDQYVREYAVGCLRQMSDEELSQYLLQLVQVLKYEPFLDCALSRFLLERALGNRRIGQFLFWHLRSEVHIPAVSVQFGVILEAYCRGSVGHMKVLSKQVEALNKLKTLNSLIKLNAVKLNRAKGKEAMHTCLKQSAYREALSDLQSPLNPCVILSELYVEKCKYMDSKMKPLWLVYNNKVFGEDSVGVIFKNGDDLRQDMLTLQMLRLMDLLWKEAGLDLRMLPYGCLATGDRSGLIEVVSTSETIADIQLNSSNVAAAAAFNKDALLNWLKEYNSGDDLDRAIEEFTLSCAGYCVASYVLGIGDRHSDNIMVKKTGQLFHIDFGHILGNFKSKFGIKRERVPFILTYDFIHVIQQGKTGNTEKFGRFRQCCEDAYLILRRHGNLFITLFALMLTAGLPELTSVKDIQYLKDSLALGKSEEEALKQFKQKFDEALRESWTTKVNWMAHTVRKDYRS

SMILES | IC50 [1] | IC50 [2]
CC[C@H]1[C@H](c2ccc(OC)cc2)OC(=O)N1c1cc(-c2cnc(N)nc2C(F)(F)F)nc(N2CCOCC2)n1 (relative stereo) [Example 2, (4S*,5S*)-3-(2′-amino-2-morpholino-4′-(trifluoromethyl)-[4,5′-bipyrimidin]-6-yl)-4-ethyl-5-(4-methoxyphenyl)oxazolidin-2-one] | 96 nM | –
C[C@H]1[C@H](c2nccs2)OC(=O)N1c1cc(-c2cnc(N)nc2C(F)(F)F)nc(N2CCOCC2)n1 [Example 1, (4S,5R)-3-(2′-Amino-2-morpholin-4-yl-4′-trifluoromethyl-[4,5′]bipyrimidinyl-6-yl)-4-methyl-5-thiazol-2-yl-oxazolidin-2-one] | 9 nM | –
COc1ccc([C@@H]2OC(=O)N(c3cc(-c4cnc(N)nc4C(F)(F)F)nc(N4CCOCC4)n3)[C@H]2CO)cc1 [Example 3, (4S,5S)-3-(2′-Amino-2-morpholino-4′-(trifluoromethyl)-[4,5′-bipyrimidin]-6-yl)-4-(hydroxymethyl)-5-(4-methoxyphenyl)oxazolidin-2-one] | 7 nM | 4 nM
C[C@H]1[C@H](c2ccccc2)OC(=O)N1c1cc(-c2cnc(N)nc2C(F)(F)F)nc(N2CCOCC2)n1 [Example 5] | – | 147 nM
CC[C@H]1[C@H](c2nccs2)OC(=O)N1c1cc(-c2cnc(N)nc2C(F)(F)F)nc(N2CCOCC2)n1 [Example 7] | – | 41 nM
CCC1C(c2cccnc2)OC(=O)N1c1cc(-c2cnc(N)nc2C(F)(F)F)nc(N2CCOCC2)n1 (centres unmarked) [Example 8] | 67 nM | –
CC1C(c2cccnc2)OC(=O)N1c1cc(-c2cnc(N)nc2C(F)(F)F)nc(N2CCOCC2)n1 (centres unmarked) [Example 9] | – | 10 nM
Nc1ncc(-c2cc(N3C(=O)O[C@@H](c4ccccc4)[C@@H]3CO)nc(N3CCOCC3)n2)c(C(F)(F)F)n1 [Example 10] | 5 nM | 31 nM
C[C@H]1[C@@H](c2nccs2)OC(=O)N1c1cc(-c2cnc(N)nc2C(F)(F)F)nc(N2CCOCC2)n1 [Example 11] | 10 nM | –
COCCOc1ccc([C@@H]2OC(=O)N(c3cc(-c4cnc(N)nc4C(F)(F)F)nc(N4CCOCC4)n3)[C@H]2CO)cc1 [Example 12] | – | 4 nM
Nc1ncc(-c2cc(N3C(=O)O[C@@H](c4ccc(OCCO)cc4)[C@@H]3CO)nc(N3CCOCC3)n2)c(C(F)(F)F)n1 [Example 13] | 11 nM | 3 nM
